System: Rattus norvegicus
Conditions: oral
[1] = short-term, duration: 28 days, gavage, F, Sprague-Dawley, Urinalysis: Volume increasep H decrease + Hematology: APTT increase, PT increase + Blood Chemistry: TP increase, Glu decrease, Cho increase…
[2] = short-term, duration: 28 days, gavage, M, Sprague-Dawley, Urinalysis: Volume increasep H decrease + Hematology: APTT increase, PT increase + Blood Chemistry: TP increase, Glu decrease, Cho increase…
[3] = subchronic, gavage, M, Sprague-Dawley, Clinical Observation: Salivation PtosisReddish urine + Functional Observational Battery: Salivation Coordination of movement, abnormal …

C1CCC2CCCCC2C1 (configuration not stated) [Decalin]
LOEL [1]: 200 mg/kg-day | NOEL [1]: 40 mg/kg-day | LOEL [2]: 40 mg/kg-day | NOEL [2]: < 40 mg/kg-day

O=C1Oc2cc3c(cc2=C1c1ccccc1)OC(=O)C=3c1ccc(OCC2CCCO2)cc1 (configuration not stated)
NOEL (short-term, duration: 28 days, gavage): 1000 mg/kg-day

COC(=O)CCS [Methyl 3-mercaptopropionate]
NOAEL (subchronic, gavage, M, Wistar, Clinical Observation: Pushed their heads through the bedding + Relative Organ Weight: Liver increase + Histopathology: Stomach: Hyperplasia…): 100 mg/kg-day

N#Cc1cccc([N+](=O)[O-])c1 [Benzonitrile, 3-nitro-]
NOEL (short-term, duration: 28 days, gavage, M/F, Deaths + Clinical Observation: Paralytic gait Piloerection Reddish tears + Body Weight Changes: Body weight gain decrease + Hematology: WBC…): < 0.5 mg/kg-day

CC1CC(C)(C)CC(c2ccc(O)cc2)(c2ccc(O)cc2)C1 (configuration not stated) [bisphenol TMC]
NOEL (short-term, duration: 28 days, gavage, M/F, Body Weight Changes: Weight gain decrease + Food Consumption: decrease + Water Consumption: increase + Urinalysis: Protein increase + …): < 100 mg/kg-day

CC(C)(C)c1cc(CCC(=O)O)cc(C(C)(C)C)c1O [Fenozan]
NOEL (subchronic, duration: 90 days, gavage, M/F, Blood Chemistry: GPT increase, TP increase, GLB increase, T-CHO increase + Organ Weight: Liver increase + Histopathology: Liver - …): 3 mg/kg-day

Oc1cccc(O)c1 [Resorcinol]
NOEL (subchronic, duration: 13 weeks, gavage, M/F, Fischer 344, Deaths + Clinical Observation: Tremor + Blood Chemistry: Ch E decrease + Absolute Organ Weight: Adrenal increase + Relative Organ Weight: …): < 32 mg/kg-day

O=C1OC(O)C(C(Cl)Cl)=C1Cl (configuration not stated) [3-Chloro-4-(dichloromethyl)-5-hydroxy-2(5H)-furanone]
NOAEL (chronic, duration: 18 weeks, gavage, M/F, Wistar, Deaths + Clinical Observation: Emaciation Wheezy breathing Tangled fur Hypersalivation Dirty mouth surrounding Colored nostril discharges + …): < 30 mg/kg-day

COc1cc(NC(=O)CC(C)=O)c(OC)cc1Cl [4'-Chloro-2',5'-dimethoxyacetoacetanilide]
NOAEL [3]: 40 mg/kg-day | NOEL [3]: 8 mg/kg-day

COC(=O)c1cccc(C(=O)OC)c1 [Dimethyl isophthalate]
NOAEL (subchronic, gavage, M, Sprague-Dawley, Clinical Observation: Salivation + Urinalysis: Volume increase, Na increase): 250 mg/kg-day

COc1cc(N=Nc2ccc3cc(S(=O)(=O)[O-])c(N=Nc4cc(OC)c(N=Nc5ccc(N)cc5S(=O)(=O)[O-])cc4OC)c(O)c3c2)c(OC)cc1N.[Na+].[Na+]
NOEL (short-term, duration: 28 days, gavage, M/F, Body Weight Changes: Body weight gain decrease + Food Consumption: decrease + Hematology: GOT increase, GPT increase, TG decrease + Organ …): 2 mg/kg-day

C=CC(C)(C)O [2-Methyl-3-buten-2-ol]
NOAEL (short-term, duration: 28 days, gavage, M/F, Wistar, Deaths + 'excluded + Clinical Observation: Sedation Ataxia Uncoordinated gait Salivation + Blood Chemistry: ALT increase, AST increase + …): 50 mg/kg-day

CN1CCNCC1 [1-Methylpiperazine]
NOEL (subchronic, gavage, M, Sprague-Dawley, Body Weight Changes: Gain decrease(trend)Gain rate decrease + Hematology: WBC decrease(trend)RET decrease, Eosinophil ratio decrease + Blood…): 80 mg/kg-day

CCn1cc(C(=O)[O-])c(=O)c2cc3occc3nc21.[Na+]
NOEL (chronic, duration: 26 weeks, gavage, M/F, Clinical Observation: Salivation + Body Weight Changes: Gain decrease + Hematology: WBC decrease + Blood Chemistry: A/G increase + Organ …): 10 mg/kg-day

CC(O)CNCC(C)O (configuration not stated) [Diisopropanolamine]
NOAEL (subchronic, duration: 90 days, drinking water, F, Fischer 344, Water Consumption: decrease + Urinalysis: Volume decrease, Specific gravity increase + Absolute Organ Weight: Kidney increase500 + Relative…): 500 mg/kg-day | NOAEL (subchronic, duration: 90 days, drinking water, M/F, Fischer 344, Water Consumption: decrease + Urinalysis: SG increase, Volume decrease + Absolute Organ Weight: Kidney increase + Relative Organ Weight: …): 100 mg/kg-day | NOAEL (subchronic, duration: 90 days, drinking water, M, Fischer 344, Water Consumption: decrease + Urinalysis: Volume decrease, Specific gravity increase + Absolute Organ Weight: Kidney increase500 + Relative…): 100 mg/kg-day

CC(C)(C)c1cc(N=C(NO)c2ccc([N+](=O)[O-])cc2)n[nH]1
NOEL (short-term, duration: 28 days, gavage, M/F, Body Weight Changes: Weight gain decrease + Hematology: RET increase, RBC decrease, HGB decrease, WBC increase, MCV increase, MCH increase, …): < 4 mg/kg-day

CC(Cl)CCCC(Cl)CCCC(Cl)CCCC(Cl)CCCC(Cl)CCCC(Cl)CCCl (configuration not stated) [Chloro C22-26 alkanes]
NOEL (subchronic, duration: 13 weeks, gavage, F, Fischer 344, Histopathology: Liver-Granuloma inflammation): < 235 mg/kg-day

OCC1CCCO1 (configuration not stated) [Tetrahydrofurfuryl alcohol]
NOEL (short-term, duration: 28 days, gavage, M/F, Sprague-Dawley, Clinical Observation: Locomotor activity increase, Locomotor activity decrease, Prone position + Functional Observational Battery: Grip …): 40 mg/kg-day

CN(C)CCCCCCN(C)C [N,N,N',N'-Tetramethyl-1,6-hexanediamine]
NOEL (subchronic, gavage, M, Sprague-Dawley, Histopathology: Lungs/ bronchus a"Vacuolation, bronchial epithelium Epididymis- Decrease, sperm): 10 mg/kg-day

Nc1ccc2cc(S(=O)(=O)O)ccc2c1 [6-Aminonaphthalene-2-sulfonic acid]
NOEL (short-term, duration: 28 days, gavage, M/F, Urinalysis: pH decrease + Blood Chemistry: GOT increase): 300 mg/kg-day

CC/C=C\CCOC(=O)c1ccccc1O [(3Z)-Hex-3-en-1-yl salicylate]
NOAEL (subchronic, duration: 42 days, gavage, M, Sprague-Dawley, Water Consumption: increase + Urinalysis: Volume increase, Osmo decrease + Hematology: RBC decrease, MCV increase, MCHC increase, RET …): 120 mg/kg-day
